Test results as given in US6500853B1, “Inhibitors of phospholipase enzymes” (Genetics Institute, LLC, priority 1998, dated 2002).

Molecular target: T1, cPLA2 (Homo sapiens, UniProt P47712)
T1 sequence (P47712 1-749): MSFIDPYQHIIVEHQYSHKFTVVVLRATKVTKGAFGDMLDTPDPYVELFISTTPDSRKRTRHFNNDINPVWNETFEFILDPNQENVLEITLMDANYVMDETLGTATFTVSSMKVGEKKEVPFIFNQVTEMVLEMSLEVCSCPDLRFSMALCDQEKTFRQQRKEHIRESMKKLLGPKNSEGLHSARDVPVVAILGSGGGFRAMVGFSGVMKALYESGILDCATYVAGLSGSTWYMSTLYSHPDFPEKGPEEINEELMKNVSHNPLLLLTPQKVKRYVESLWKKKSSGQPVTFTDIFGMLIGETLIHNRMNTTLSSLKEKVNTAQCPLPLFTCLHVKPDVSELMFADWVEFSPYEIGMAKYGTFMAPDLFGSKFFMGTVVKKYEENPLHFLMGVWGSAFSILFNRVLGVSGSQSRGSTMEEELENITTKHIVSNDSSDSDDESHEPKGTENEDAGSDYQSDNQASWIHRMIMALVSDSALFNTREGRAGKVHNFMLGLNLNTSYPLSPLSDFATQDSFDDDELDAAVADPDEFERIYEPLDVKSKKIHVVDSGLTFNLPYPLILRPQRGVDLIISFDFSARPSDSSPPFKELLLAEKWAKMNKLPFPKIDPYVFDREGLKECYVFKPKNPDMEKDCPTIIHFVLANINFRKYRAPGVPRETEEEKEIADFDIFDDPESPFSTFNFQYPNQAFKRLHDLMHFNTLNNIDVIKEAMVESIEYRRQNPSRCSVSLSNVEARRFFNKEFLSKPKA
Experiment: Coumarin Assay (cPLA2 inhibition)
Type: biochemical
Conditions: for inhibition at 2.5 µM: CONCENTRATION 2.5 micromolar; for inhibition at 1.6 µM: CONCENTRATION 1.6 micromolar; for inhibition at 1.1 µM: CONCENTRATION 1.1 micromolar
Experimental: Table I reports data for the compounds described in the examples above in cPLA2 inhibition assays (described below). In the data columns of Tables I and II, assay results are reported as a percent inhibition at the concentration specified.
7-hydroxycoumarinyl 6-heptenoate was used as a monomeric substrate for cPLA2 as reported previously (Huang, Z. et al., 1994, Nalytical Biochemistry 222, 110-115). Inhibitors were mixed with 200 μL assay buffer (80 mM Heped, pH 7.5, 1 mM EDTA) containing 60 μM 7-hydroxycoumarinyl 6-heptenoate. The reaction was initiated by adding 4 μg cPLA2 in 50 μL assay buffer. Hydrolysis of the 7-hydroxycounarimyl 6-heptenoate ester was monitored in a fluorometer by exciting at 360 nm and monitoring emission at 460 nm. Enzyme activity is proportional to the increase in emission at 460 nm per minute. In the presence of a cPLA2 inhibitor, the rate of increase is less. The percent inhibition for corresponding concentrations of compounds herein in this Coumarin assay are provided below in Table I.

[1] = CONCENTRATION 50 micromolar, read-out: PERCENT INHIBITION @

Compound `O=C(Cc1cn(Cc2ccc(C(F)(F)F)cc2C(F)(F)F)c2ccc(OCc3ccccc3)cc12)Nc1cccc(C(=O)O)c1` [Example 106, 3-[(2-{5-(benzyloxy)-1-[2,4-bis(trifluoromethyl)benzyl]-1H-indol-3-yl}acetyl)amino]benzoic acid] has an inhibition at 7 µM (CONCENTRATION 7 micromolar, read-out: PERCENT INHIBITION @) of 50% and an inhibition at 12 µM (CONCENTRATION 12 micromolar, read-out: PERCENT INHIBITION @) of 50%.

In the case of `Cc1c(C(=O)O)c2cc(OCc3ccccc3)ccc2n1Cc1ccc(C(F)(F)F)cc1C(F)(F)F` [Example 107, 5-(benzyloxy)-1-[2,4-bis(trifluoromethyl)benzyl]-2-methyl-1H-indole-3-carboxylic acid], the inhibition at 37 µM (CONCENTRATION 37 micromolar, read-out: PERCENT INHIBITION @) is reported as 50%, the inhibition at 50 µM [1] is reported as 43% and the inhibition at 71 µM (CONCENTRATION 71 micromolar, read-out: PERCENT INHIBITION @) is reported as 50%. For the same compound, the inhibition at 80 µM (CONCENTRATION 80 micromolar, read-out: PERCENT INHIBITION @) was 50%.

`Cc1c(C(=O)Nc2cc(C(=O)O)cc(C(=O)O)c2)c2cc(OCc3ccccc3)ccc2n1Cc1ccc(C(F)(F)F)cc1C(F)(F)F` [Example 108, 5-[({5-(benzyloxy)-1-[2,4-bis(trifluoromethyl)benzyl]-2-methyl-1H-indol-3-yl}carbonyl)amino]isophthalic acid] was tested, and the inhibition at 6.25 µM (CONCENTRATION 6.25 micromolar, read-out: PERCENT INHIBITION @) was 67%, the inhibition at 20 µM (CONCENTRATION 20 micromolar, read-out: PERCENT INHIBITION @) was 15% and the inhibition at 48 µM (CONCENTRATION 48 micromolar, read-out: PERCENT INHIBITION @) was 50%. It also gave an inhibition at 50 µM [1] of 46%.

With `Cc1c(C(=O)O)c2cc(OCc3ccccc3)ccc2n1Cc1ccc2ccccc2c1` [Example 109, 5-(benzyloxy)-2-methyl-1-(2-naphthylmethyl)-1H-indole-3-carboxylic acid] the “PERCENT INHIBITION @” value (CONCENTRATION 50 micromolar) was 25% and the inhibition at 50 µM [1] was 28%.

Work on `Cc1c(C(=O)Nc2cc(C(=O)O)cc(C(=O)O)c2)c2cc(OCc3ccccc3)ccc2n1Cc1ccc2ccccc2c1` [Example 110, 5-({[5-(benzyloxy)-2-methyl-1-(2-naphthylmethyl)-1H-indol-3-yl]carbonyl}amino)isophthalic acid] yielded an inhibition at 46 µM (CONCENTRATION 46 micromolar, read-out: PERCENT INHIBITION @) of 50% and an inhibition at 47 µM (CONCENTRATION 47 micromolar, read-out: PERCENT INHIBITION @) of 50%.

For `Cc1c(C(=O)O)c2cc(OCc3ccccc3)ccc2n1Cc1ccccc1` [Example 111, 1-benzyl-5-(benzyloxy)-2-methyl-1H-indole-3-carboxylic acid], the “PERCENT INHIBITION @” value (CONCENTRATION 50 micromolar) was 15% and the inhibition at 50 µM [1] was 16%.

In the case of `O=C(Nc1cccc(C(=O)O)c1)C(=O)c1c(CSc2ccc3ccccc3c2)n(Cc2ccc(Cl)cc2)c2ccc(OCc3ccccc3)cc12` [Example 112, 3-[(2-{5-(benzyloxy)-1-(4-chlorobenzyl)-2-[(2-naphthylsulfanyl)methyl]-1H-indol-3-yl}-2-oxoacetyl)amino]benzoic acid], the inhibition at 2.5 µM (read-out: PERCENT INHIBITION @) is reported as 53%.

Compound `Cn1c(CSc2ccc3ccccc3c2)c(C(=O)C(=O)Nc2cccc(C(=O)O)c2)c2cc(OCc3ccccc3)ccc21` [Example 113, 3-[(2-{5-(benzyloxy)-1-methyl-2-[(2-naphthylsulfanyl)methyl]-1H-indol-3-yl}-2-oxoacetyl)amino]benzoic acid] has an inhibition at 7.5 µM (CONCENTRATION 7.5 micromolar, read-out: PERCENT INHIBITION @) of 50% and an inhibition at 8 µM (CONCENTRATION 8 micromolar, read-out: PERCENT INHIBITION @) of 50%.

Compound `Cc1cc(Cc2cn(C(c3ccccc3)c3ccccc3)c3cc(Cl)ccc23)cc(C)c1OCC(=O)O` [Example 117, 2-{4-[(1-benzhydryl-6-chloro-1H-indol-3-yl)methyl]-2,6-dimethylphenoxy}acetic acid] has an inhibition at 1.6 µM (read-out: PERCENT INHIBITION @) of 50%.

`COc1cc(OCC(=O)O)ccc1Cc1cn(C(c2ccccc2)c2ccccc2)c2cc(Cl)ccc12` [Example 118, 2-{4-[(1-benzhydryl-6-chloro-1H-indol-3-yl)methyl]-3-methoxyphenoxy}acetic acid] gave an inhibition at 0.6 µM (CONCENTRATION 0.6 micromolar, read-out: PERCENT INHIBITION @) of 50%.

`O=C(O)COc1ccc(Cc2cn(C(c3ccccc3)c3ccccc3)c3cc(Cl)ccc23)cc1` [Example 119, 2-{4-[(1-benzhydryl-6-chloro-1H-indol-3-yl)methyl]phenoxy}acetic acid] showed an inhibition at 2.5 µM (read-out: PERCENT INHIBITION @) of 50%.

With `O=C(O)COc1ccc(Cc2cn(C(c3ccccc3)c3ccccc3)c3cc(Cl)ccc23)c(Cl)c1` [Example 120, 2-{4-[(1-benzhydryl-6-chloro-1H-indol-3-yl)methyl]-3-chlorophenoxy}acetic acid] the inhibition at 1 µM (CONCENTRATION 1 micromolar, read-out: PERCENT INHIBITION @) was 50%.

In the case of `COc1cc(Cc2cn(C(c3ccccc3)c3ccccc3)c3cc(Cl)ccc23)ccc1OCC(=O)O` [Example 121, 2-{4-[(1-benzhydryl-6-chloro-1H-indol-3-yl)methyl]-2-methoxyphenoxy}acetic acid], the inhibition at 1.6 µM (read-out: PERCENT INHIBITION @) is reported as 20%.

Compound `O=C(O)/C=C/COc1ccc(Cc2cn(C(c3ccccc3)c3ccccc3)c3cc(Cl)ccc23)cc1` [Example 122, (E)-4-{4-[(1-benzhydryl-6-chloro-1H-indol-3-yl)methyl]phenoxy}-2-butenoic acid] has an inhibition at 1.25 µM (CONCENTRATION 1.25 micromolar, read-out: PERCENT INHIBITION @) of 64%.

`O=C(O)CCC(=O)Nc1ccc(Cc2cn(C(c3ccccc3)c3ccccc3)c3cc(Cl)ccc23)cc1` [Example 123, 4-{4-[(1-benzhydryl-6-chloro-1H-indol-3-yl)methyl]anilino}-4-oxobutanooic acid] was tested, and the “PERCENT INHIBITION @” value (CONCENTRATION 1.2 micromolar) was 50%.

With `O=C(O)CC(=O)Nc1ccc(Cc2cn(C(c3ccccc3)c3ccccc3)c3cc(Cl)ccc23)cc1` [Example 124, sodium 3-{4-[(1-benzhydryl-6-chloro-1H-indol-3-yl)methyl]anilino}-3-oxopropanoic acid] the inhibition at 1.3 µM (CONCENTRATION 1.3 micromolar, read-out: PERCENT INHIBITION @) was 50%.

Compound `O=C(O)C(=O)Nc1ccc(Cc2cn(C(c3ccccc3)c3ccccc3)c3cc(Cl)ccc23)cc1` [Example 125, 2-{4-[(1-benzhydryl-6-chloro-1H-indol-3-yl)methyl]anilino}-2-oxoacetic acid] has an inhibition at 0.8 µM (CONCENTRATION 0.8 micromolar, read-out: PERCENT INHIBITION @) of 50%.

For `O=C(O)C1CC1Cc1cn(C(c2ccccc2)c2ccccc2)c2cc(Cl)ccc12` (stereo not shown) [Example 126, 2-[(1-benzhydryl-6-chloro-1H-indol-3-yl)methyl]cyclopropanecarboxylic acid], the inhibition at 5.5 µM (CONCENTRATION 5.5 micromolar, read-out: PERCENT INHIBITION @) was 50%.

Work on `O=C(O)C1CC1Cc1cn(C(c2ccccc2)c2ccccc2)c2cc(Cl)c(F)cc12` (stereo not shown) [Example 127, 2-[(1-benzhydryl-6-chloro-5-fluoro-1H-indol-3-yl)methyl]cyclopropanecarboxylic acid] yielded an inhibition at 1.1 µM (read-out: PERCENT INHIBITION @) of 50%.

In the case of `O=C(O)C1CC1Cc1cn(C(c2ccccc2)c2ccccc2)c2cc(Cl)c(Cl)cc12` (stereo not shown) [Example 128, 2-[(1-benzhydryl-5,6-dichloro-1H-indol-3-yl)methyl]cyclopropanecarboxylic acid], the inhibition at 0.9 µM (CONCENTRATION 0.9 micromolar, read-out: PERCENT INHIBITION @) is reported as 50%.

With `O=C(O)C1CC1Cc1cn(C(c2ccc(O)cc2)c2ccc(O)cc2)c2cc(Cl)ccc12` (stereo not shown) [Example 129, 2-({1-[bis(4-hydroxyphenyl)methyl]-6-chloro-1H-indol-3-yl}methyl)cyclopropanecarboxylic acid] the inhibition at 1.1 µM (read-out: PERCENT INHIBITION @) was 50%.

`O=C(O)c1ccc(Cc2cn(C(c3ccccc3)c3ccccc3)c3cc(Cl)ccc23)c(O)c1` [Example 130, ′4-[(1-benzhydryl-6-chloro-1H-indol-3-yl)methyl]-3-hydroxybenzoic acid] was tested, and the “PERCENT INHIBITION @” value (CONCENTRATION 2 micromolar) was 50%.

With `O=C(O)c1ccc(Cc2cn(C(c3ccccc3)c3ccccc3)c3cc(Cl)ccc23)c(OCCCO)c1` [Example 131, ′4-[(1-benzhydryl-6-chloro-1H-indol-3-yl)methyl]-3-(3-hydroxypropoxy)benzoic acid] the “PERCENT INHIBITION @” value (CONCENTRATION 0.6 micromolar) was 50%.
